US12491185B2, “Inhibitors of mPTP” (NRG Therapeutics Ltd, priority 2023, dated 2025)

What follows are compounds tested on mPTP (assay: mPTP activity (Ca2+ retention) assay in isolated rat liver mitochondria). Conditions: examples tested by different contract research organisations, believed comparable.
Type: biochemical
From the text: Pharmacological inhibition or modulation of the mPTP can be measured in well characterised ‘Ca^2+ retention’ assays performed in isolated mitochondria. In vitro, isolated mitochondria rapidly sequester exogenous Ca^2+ until the intramitochondrial Ca^2+ concentration reaches the threshold for mPTP activation. Once the pore is activated, mitochondrial integrity is compromised and the stored Ca^2+ is released. The distribution of Ca^2+ between extra- and intra-mitochondrial compartments can be measured in real time with the use of membrane-impermeant Ca^2+ sensitive fluorescent dyes. Depending on the configuration of the assay, inhibition or modulation of the mPTP either delays the opening of the pore or increases the concentration of Ca^2+ required to induce mPTP opening.
MPTP activity was measured in mitochondria freshly isolated from female Sprague Dawley (250 to 300 gram) rat livers using the following method. Cervical dislocation was performed on the rat. The liver was then perfused in-situ with −40 ml cold Dulbecco's Phosphate Buffered Saline (DPBS) prior to dissection and transferred into 30 ml Isolation Buffer (250 mM Sucrose, 10 mM KCl, 1 mM EGTA, 1 mM EDTA, 25 mM HEPES, adjusted to pH 7.5 with 1M NaOH). Each lobe of the liver was then removed from the buffer, minced using tweezers and a scalpel into −5 mm pieces then transferred into a 50 ml Potterton dounce homogenization tube on ice containing 30 ml ice-cold centrifugation buffer (300 mM Trehalose, 25 mM HEPES, 1 mM EGTA, 1 mM EDTA, 10 mM KCl, adjusted to pH 7.5 with 1M NaOH and supplemented with 0.1% bovine serum albumin (BSA) and complete protease inhibitor cocktail (one tablet of inhibitor per 50 mls of buffer). Homogenisation was carried out using a teflon pestle at 1800 rpm. The slurry was centrifuged at 800 g for 10 min at 4° C., then the supernatant centrifuged at 10,000 g for 10 min. The pellet was washed once with FLIPR assay buffer (75 mM Mannitol, 25 mM Sucrose, 5 mM Potassium Phosphate Monobasic, 20 mM Tris base, 100 mM KCl, 0.1% BSA adjusted to pH 7.4 with 5M HCl) centrifuged again, then resuspended in FLIPR assay buffer to a concentration of 8.8 mg/ml protein.
Tested compounds (10 mM stock in DMSO) were serially diluted in DMSO in half log steps to generate 10 test concentrations (final concentrations in assay 30 μM to 1 nM). An intermediate dilution of 5 μl DMSO samples into 247 μl FLIPR assay buffer was carried out prior to transfer of 5 μl into duplicate wells of a 384 well polypropylene assay plate. Control wells were 0.5% (v/v) DMSO and 5 μM cyclosporin A.
A stock mitochondria/Fluo5N assay solution was prepared in 5.6 ml FLIPR assay buffer (at RT) supplemented with succinate disodium salt (10 mM), rotenone (1 μM), Fluo5N pentapotassium salt (2 μM) and 1 ml mitochondria suspension, then transferred (15 μl) into the assay plate containing test compounds and incubated for 10 min at RT. Assay plates were processed for fluorescence detection on either a FLIPR Tetra (Molecular Devices) or CLARIOstar (BMG) plate reader. For kinetic fluorescence detection on the FLIPR, dye fluorescence was measured every 3 sec for a total of 10 min. After 12 sec, a 2.5 μl bolus of CaCl2 (75 μM) was added from a source plate containing 675 μM CaCl2 in FLIPR assay buffer. Alternatively, the 2.5 μl addition of CaCl2 was performed using a Viaflow 384, plates were incubated at RT for 10 min, and dye fluorescence measured after 10 min on the CLARIOstar plate reader. pIC50 values for tested compounds were calculated using the fluorescence value collected at the 10 min timepoint on either plate reader, with % inhibition calculated using the DMSO control and cyclosporin A values as 0 and 100% respectively.

Structure (SMILES)	mPTP Rat liver pIC50
Cc1cc(Cl)ccc1CC1(CNC(=O)c2nn(C)c(=O)[nH]2)CCC1 [Example 91, N-((1-(4-Chloro-2-methylbenzyl)cyclobutyl)methyl)-1-methyl-5-oxo-4,5-dihydro-1H-1,2,4-triazole-3-carboxamide]	5.75
Cn1nc(C(=O)NCC(Cc2ccc(F)cc2F)C2CC2)[nH]c1=O (stereo not shown) [Example 93, N-(2-Cyclopropyl-3-(2,4-difluorophenyl)propyl)-1-methyl-5-oxo-4,5-dihydro-1H-1,2,4-triazole-3-carboxamide]	6.58
Cc1cccc(CC2(CNC(=O)c3nn(C)c(=O)[nH]3)CCC2)c1F [Example 94, N-((1-(2-Fluoro-3-methylbenzyl)cyclobutyl)methyl)-1-methyl-5-oxo-4,5-dihydro-1H-1,2,4-triazole-3-carboxamide]	5.77
Cn1nc(C(=O)NC[C@@H](Cc2ccc(F)cc2F)C2CC2)[nH]c1=O [Example 97, (S)—N-(2-cyclopropyl-3-(2,4-difluorophenyl)propyl)-1-methyl-5-oxo-4,5-dihydro-1H-1,2,4-triazole-3-carboxamide]	5.66
Cn1nc(C(=O)NCC2(Cc3ccc(F)cc3OC(F)(F)F)CCC2)[nH]c1=O [Example 102, N-((1-(4-fluoro-2-(trifluoromethoxy)benzyl)cyclobutyl)methyl)-1-methyl-5-oxo-4,5-dihydro-1H-1,2,4-triazole-3-carboxamide]	<4.57
Cn1nc(C(=O)NCC(Cc2ccc(F)cc2F)C2CCCC2)[nH]c1=O (stereo not shown) [Example 103, N-(2-cyclopentyl-3-(2,4-difluorophenyl)propyl)-1-methyl-5-oxo-4,5-dihydro-1H-1,2,4-triazole-3-carboxamide]	<4.57
Cn1nc(C(=O)NCC2(Cc3ccc(C(F)(F)F)cc3F)CCC2)[nH]c1=O [Example 104, N-((1-(2-fluoro-4-(trifluoromethyl)benzyl)cyclobutyl)methyl)-1-methyl-5-oxo-4,5-dihydro-1H-1,2,4-triazole-3-carboxamide]	<4.57
O=C(NCC1(Cc2ccc(F)cc2F)CCC1)c1nnc(C(F)(F)F)[nH]1 [Example 105, N-((1-(2,4-difluorobenzyl)cyclobutyl)methyl)-5-(trifluoromethyl)-4H-1,2,4-triazole-3-carboxamide]	<4.57
CSc1ccc(CC2(CNC(=O)c3nn(C)c(=O)[nH]3)CCC2)cc1 [Example 106, 1-methyl-N-((1-(4-(methylthio)benzyl)cyclobutyl)methyl)-5-oxo-4,5-dihydro-1H-1,2,4-triazole-3-carboxamide]	<4.57
Cn1nc(C(=O)NCC2(Cc3ccc(F)cc3F)CCC2)n(C)c1=O [Example 107, N-((1-(2,4-difluorobenzyl)cyclobutyl)methyl)-1,4-dimethyl-5-oxo-4,5-dihydro-1H-1,2,4-triazole-3-carboxamide]	<4.57
Cc1cccc(C)c1CC1(CNC(=O)c2nn(C)c(=O)[nH]2)CCC1 [Example 108, N-((1-(2,6-dimethylbenzyl)cyclobutyl)methyl)-1-methyl-5-oxo-4,5-dihydro-1H-1,2,4-triazole-3-carboxamide]	<4.57
Cn1nc(C(=O)NCC2(Cc3cccc(C(F)(F)F)c3)CCC2)[nH]c1=O [Example 110, 1-methyl-5-oxo-N-((1-(3-(trifluoromethyl)benzyl)cyclobutyl)methyl)-4,5-dihydro-1H-1,2,4-triazole-3-carboxamide]	<4.57
CCc1ccc(CC2(CNC(=O)c3nn(C)c(=O)[nH]3)CCC2)cc1 [Example 111, N-((1-(4-ethylbenzyl)cyclobutyl)methyl)-1-methyl-5-oxo-4,5-dihydro-1H-1,2,4-triazole-3-carboxamide]	<4.57
CCC(CNC(=O)c1nn(C)c(=O)[nH]1)Cc1cscn1 (stereo not shown) [Example 112, 1-methyl-5-oxo-N-(2-(thiazol-4-ylmethyl)butyl)-4,5-dihydro-1H-1,2,4-triazole-3-carboxamide]	<4.57
CCC(CNC(=O)c1nn(C)c(=O)[nH]1)Cc1cnn(C)c1 (stereo not shown) [Example 113, 1-methyl-N-(2-((1-methyl-1H-pyrazol-4-yl)methyl)butyl)-5-oxo-4,5-dihydro-1H-1,2,4-triazole-3-carboxamide]	<4.57
Cn1nc(C(=O)NC[C@H](Cc2ccc(F)c(F)c2)C2CC2)[nH]c1=S [Example 118, (R)-N-(2-cyclopropyl-3-(3,4-difluorophenyl)propyl)-1-methyl-5-thioxo-4,5-dihydro-1H-1,2,4-triazole-3-carboxamide]	6.26
Cn1nc(C(=O)NC[C@H](Cc2ccc(F)c(F)c2)C2CC2)[nH]c1=S [Example 119]	5.9
Cn1nc(C(=O)NCC2(Cc3ccc(F)cc3F)CCCO2)[nH]c1=O (stereo not shown) [Example 120]	6.51
O=C(NCC1(Cc2ccc(F)cc2F)CC12CC2)c1cncc(=O)[nH]1 (stereo not shown) [Example 122]	6.31
Cn1nc(C(=O)NCC2(Cc3ccc(F)cc3F)CC23CC3)[nH]c1=O (stereo not shown) [Example 123]	7.04
Cn1nc(C(=O)NC[C@H](Cc2ccccc2)C2CC2)[nH]c1=O [Example 124]	6.76
CC[C@H](CNC(=O)c1nn(C)c(=O)[nH]1)Cc1c(F)cc(F)cc1F [Example 125]	6.55

Next, values leading:

mPTP Rat liver pIC50	Structure (SMILES)
<4.57	Cn1oc(C(=O)NCC2(Cc3ccc(F)cc3F)CCC2)cc1=O [Example 126]
<4.57	O=C(NCC1(Cc2ccc(F)cc2F)CCC1)c1cn[nH]c(=O)c1 [Example 127]
6.01	O=C(NCC1(Cc2ccc(F)cc2F)CCC1)c1cc(O)ccn1 [Example 128]
6.45	CCC(F)(CNC(=O)c1nn(C)c(=O)[nH]1)Cc1ccc(F)cc1F (stereo not shown) [Example 129, N-(2-(2,4-difluorobenzyl)-2-fluorobutyl)-1-methyl-5-oxo-4,5-dihydro-1H-1,2,4-triazole-3-carboxamide]
<4.57	O=C(NCC1(Cc2ccc(F)cc2F)CCC1)c1ccn[nH]c1=O [Example 134, N-((1-(2,4-difluorobenzyl)cyclobutyl)methyl)-3-oxo-2,3-dihydropyridazine-4-carboxamide]
6.52	CC[C@@H](Cc1ccccc1)C(C)NC(=O)c1nn(C)c(=O)[nH]1 (stereo partly shown) [Example 135]
6.39	O=C(NC[C@H](Cc1ccc(F)cc1F)C1CC1)c1cc(=O)[nH]o1 [Example 136]
5.58	O=C(NC[C@H](Cc1ccc(F)cc1F)C1CC1)c1coc(=O)[nH]1 [Example 137]
<4.57	O=C(NCC1(Cc2ccc(F)cc2F)CCC1)c1c[nH]c(=O)cn1 [Example 138, N-((1-(2,4-difluorobenzyl)cyclobutyl)methyl)-5-oxo-4,5-dihydropyrazine-2-carboxamide]
5.73	O=C(NCC1(Cc2ccc(F)c(F)c2)CCC1)c1cncc(=O)[nH]1 [Example 139]
<4.57	O=C(NCC1(Cc2ccc(F)cc2F)CCC1)c1nnn[nH]1 [Example 140]
6.44	CC[C@@H](Cc1ccc(F)cc1F)C(C)NC(=O)c1nn(C)c(=O)[nH]1 (stereo partly drawn) [Example 141, N-[(3S)-3-[(2,4-difluorophenyl)methyl]pentan-2-yl]-1-methyl-5-oxo-4H-1,2,4-triazole-3-carboxamide]
6.47	O=C(NC[C@H](Cc1ccc(F)c(F)c1)C1CC1)c1cncc(=O)[nH]1 [Example 143]
<4.57	CCC(CNC(=O)c1nn(C)c(=O)[nH]1)Cc1ccc2cnccc2c1 (stereo not shown) [Example 144]
<4.57	O=C(NCC1(Cc2ccc(F)cc2F)CCC1)c1cnc(=O)[nH]c1 [Example 145]
